Laboratory results taken from patent publication US20250009737A1, “COMPOUNDS AND METHODS FOR THE TARGETED DEGRADATION OF ANDROGEN RECEPTOR” (Arvinas Operations, Inc., priority 2023, published 2025).
Where two headings read alike, the source gives them in different places.

What was measured:
Assay type in all cases: in vitro ADME
CYP2B6 mRNA = CYP2B6 mRNA induction in cryopreserved human hepatocytes; details: 0.03-30 μM; for CYP2B6 mRNA Fold induction: human hepatocytes, 48 hours
Description: (§1) The induction potential of Compound A on CYP enzymes was assessed in cryopreserved human hepatocytes from three donors. Following treatment for with Compound A at concentrations of 0.03-30 μM for 48 hours, mRNA levels for CYP1A2, 2B6, 2C8, 2C9, 2C19, and 3A4 were determined by semiquantitative real-time polymerase chain reaction (PCR). Test article concentrations during 24-hour incubation were determined. The potential of Compound A to cause direct and time-dependent inhibition (TDI) of the activities of CYP1A2, 2B6, 2C8, 2C9, 2C19, 2D6, and 3A4 was evaluated in pooled human liver microsomes (HLM) at 0.2-15 μM. Probe substrate concentrations around Km were used for direction inhibition and initial TDI assays. For TDI assay, Compound A was pre-incubated with pooled HLM with and without NADPH for 30 minutes prior to incubation with a single concentration of probe substrate.

CYP1A2 = target: T1, CYP1A2 (Homo sapiens, UniProt P05177); experiment: Direct and time-dependent CYP1A2 inhibition in pooled human liver microsomes; details: pooled HLM, substrate Phenacetin 50 μM
T1 construct: evaluated in pooled human liver microsomes (HLM); from tissue; host or cells: pooled human liver microsomes
Description: as §1

[1] = Metabolite profiling / stability in human liver microsomes
Description: (§2) Metabolite profiling was conducted in incubations of Compound A (2 and 10 μM) with HLM (up to 60 min), human hepatocyte suspension (up to 240 min) and human plasma (up to 360 min). In addition, Compound A (2 μM) was incubated with recombinant human CYP enzymes CYP1A2, CYP2A6, CYP2B6, CYP2C8, CYP2C9, CYP2C19, CYP2D6, CYP2E1, CYP3A4 and CYP3A5.
(§3) The DDI potential of Compound A as a victim via CYP mediated pathways was examined in HLM, human hepatocyte suspensions, and human recombinant CYP enzymes.

major recombinant CYPs = experiment: Incubation with recombinant human CYP enzymes; details: up to 25 min
Description: as §2, §3

CYP3A5 = CYP3A5 (Homo sapiens, UniProt P20815); experiment: Incubation with recombinant human CYP3A5
Description: as §2, §3

OATP1B1 = target: T2, OATP1B1 (Homo sapiens, UniProt Q9Y6L6); experiment: OATP1B1 uptake transporter inhibition in MDCKII or HEK293 cells; parameters: expressed in transfected cells; host or cells: MDCKII or HEK293; details: substrate Rosuvastatin (1 μM)
T2 sequence (Q9Y6L6 1-691): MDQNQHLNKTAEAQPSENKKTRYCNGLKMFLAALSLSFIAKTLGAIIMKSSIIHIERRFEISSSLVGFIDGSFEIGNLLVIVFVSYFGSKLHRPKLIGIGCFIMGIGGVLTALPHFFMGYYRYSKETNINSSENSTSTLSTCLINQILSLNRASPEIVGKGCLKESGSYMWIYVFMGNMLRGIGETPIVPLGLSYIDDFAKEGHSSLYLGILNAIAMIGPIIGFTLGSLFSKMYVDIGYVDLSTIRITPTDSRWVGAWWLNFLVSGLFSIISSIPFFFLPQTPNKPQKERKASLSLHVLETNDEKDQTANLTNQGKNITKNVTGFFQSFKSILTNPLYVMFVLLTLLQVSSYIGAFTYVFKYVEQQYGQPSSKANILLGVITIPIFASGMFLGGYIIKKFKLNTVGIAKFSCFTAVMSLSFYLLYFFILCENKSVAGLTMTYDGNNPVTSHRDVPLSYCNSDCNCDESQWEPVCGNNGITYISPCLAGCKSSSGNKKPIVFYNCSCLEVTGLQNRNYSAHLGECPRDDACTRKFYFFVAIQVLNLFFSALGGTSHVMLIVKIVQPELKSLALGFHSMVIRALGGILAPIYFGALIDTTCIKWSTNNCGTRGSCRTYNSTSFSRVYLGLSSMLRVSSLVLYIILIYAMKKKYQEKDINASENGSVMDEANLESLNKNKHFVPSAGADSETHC
Description: (§4) In addition, the inhibition potential against efflux transporters (P-glycoprotein (Pgp) and breast cancer resistance protein (BCRP)) and uptake transporters (MATE1, MATE2-K, OATP1B1, OATP1B3, OAT1, OAT3, and OCT2) was assessed using single transporter over-expressed cell monolayers (MDCK II or HEK293) or inside-out vesicles.
(§5) The potential of Compound A to inhibit Pgp or BCRP was tested for bidirectional transport of the probe substrates in Pgp or BCRP-expressed MDCKII and control monolayers at Compound A concentrations of 0.07-5 μM. Pgp and BCR inhibition were tested in inside-out membrane vesicles prepared from HEK293 overexpressing human Pgp and BCR at concentrations of 0.01-9 μM Compound A in the presence of 4 mM MgATP or MgAMP.

OATP1B3 = target: T3, OATP1B3 (Homo sapiens, UniProt Q9NPD5); experiment: OATP1B3 uptake transporter inhibition in MDCKII or HEK293 cells; parameters: expressed in transfected cells; host or cells: MDCKII or HEK293; details: substrate Rosuvastatin (1 μM)
T3 sequence (Q9NPD5 1-702): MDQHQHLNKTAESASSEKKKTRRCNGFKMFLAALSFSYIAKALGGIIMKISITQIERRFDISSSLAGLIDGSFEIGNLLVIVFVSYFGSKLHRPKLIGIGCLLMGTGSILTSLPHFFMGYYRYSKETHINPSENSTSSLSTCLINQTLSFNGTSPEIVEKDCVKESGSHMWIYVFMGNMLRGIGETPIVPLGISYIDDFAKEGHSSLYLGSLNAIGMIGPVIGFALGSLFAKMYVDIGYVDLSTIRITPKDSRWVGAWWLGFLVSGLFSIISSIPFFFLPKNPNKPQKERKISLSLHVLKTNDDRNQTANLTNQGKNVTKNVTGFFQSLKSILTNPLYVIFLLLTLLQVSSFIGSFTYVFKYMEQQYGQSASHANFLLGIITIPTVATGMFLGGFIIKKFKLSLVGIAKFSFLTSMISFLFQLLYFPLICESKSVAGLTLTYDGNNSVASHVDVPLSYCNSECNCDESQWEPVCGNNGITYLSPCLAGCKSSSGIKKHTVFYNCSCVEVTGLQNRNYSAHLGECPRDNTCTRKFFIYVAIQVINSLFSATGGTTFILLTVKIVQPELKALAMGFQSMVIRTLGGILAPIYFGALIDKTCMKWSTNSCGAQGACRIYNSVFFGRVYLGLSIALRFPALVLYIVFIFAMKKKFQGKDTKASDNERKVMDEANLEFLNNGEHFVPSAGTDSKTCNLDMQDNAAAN
Description: as §4, §5

T1 sequence (P05177 whole entry): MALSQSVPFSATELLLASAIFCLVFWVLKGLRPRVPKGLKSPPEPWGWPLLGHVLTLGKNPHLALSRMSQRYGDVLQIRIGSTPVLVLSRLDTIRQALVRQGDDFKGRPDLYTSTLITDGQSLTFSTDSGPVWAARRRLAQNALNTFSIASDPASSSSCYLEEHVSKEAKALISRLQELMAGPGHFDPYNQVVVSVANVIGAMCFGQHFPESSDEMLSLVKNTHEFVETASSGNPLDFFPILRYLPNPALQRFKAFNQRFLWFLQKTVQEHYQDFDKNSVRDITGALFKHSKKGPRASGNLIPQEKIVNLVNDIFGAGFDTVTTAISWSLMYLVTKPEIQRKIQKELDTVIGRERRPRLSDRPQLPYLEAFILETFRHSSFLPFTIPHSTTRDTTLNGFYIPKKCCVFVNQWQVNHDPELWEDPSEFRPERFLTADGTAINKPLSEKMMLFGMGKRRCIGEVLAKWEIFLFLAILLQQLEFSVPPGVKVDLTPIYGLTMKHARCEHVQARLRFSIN
Sequence of CYP3A5 (P20815 whole entry): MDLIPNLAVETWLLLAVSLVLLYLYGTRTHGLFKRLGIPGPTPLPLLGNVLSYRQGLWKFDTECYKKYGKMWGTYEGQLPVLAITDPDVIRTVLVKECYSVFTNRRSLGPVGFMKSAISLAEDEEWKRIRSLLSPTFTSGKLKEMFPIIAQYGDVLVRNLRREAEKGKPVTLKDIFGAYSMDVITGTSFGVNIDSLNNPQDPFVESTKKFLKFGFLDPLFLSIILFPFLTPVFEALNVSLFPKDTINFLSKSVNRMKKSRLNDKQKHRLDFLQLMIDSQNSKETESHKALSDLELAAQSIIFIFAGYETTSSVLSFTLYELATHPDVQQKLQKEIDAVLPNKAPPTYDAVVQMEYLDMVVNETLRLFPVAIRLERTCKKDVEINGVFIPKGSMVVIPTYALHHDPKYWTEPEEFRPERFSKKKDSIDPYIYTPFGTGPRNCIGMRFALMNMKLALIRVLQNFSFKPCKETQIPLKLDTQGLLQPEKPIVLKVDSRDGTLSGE

COc1cc(O[C@H]2C(C)(C)[C@H](NC(=O)c3ccc(N4CCC(CN5CCN(c6ccc(C(=O)N[C@H]7CCC(=O)NC7=O)c(F)c6)CC5)CC4)cc3)C2(C)C)ccc1C#N [Compound A, 4-(4-((1-(4-(((1R,3R)-3-(4-cyano-3-methoxyphenoxy)-2,2,4,4-tetramethylcyclobutyl)carbamoyl)phenyl)piperidin-4-yl)methyl)piperazin-1-yl)-N—((S)-2,6-dioxopiperidin-3-yl)-2-fluorobenzamide]
CYP2B6 mRNA Fold induction (CYP2B6 mRNA; Donor 1): <2 Fold | CYP2B6 mRNA Fold induction (CYP2B6 mRNA; Donor 2): <2 Fold | CYP2B6 mRNA Fold induction (CYP2B6 mRNA; Donor 3): <2 Fold | Induction of CYP2B6 mRNA (CYP2B6 mRNA; all three donors of human hepatocytes): did not induce | IC50 (CYP1A2; read-out: IC50, 30 min Pre-incubation): > 15 µM | IC50 (CYP1A2; read-out: IC50, No Pre-incubation): > 15 µM | % Parent at 0 Min, HLM at 60 min ([1]; human liver microsomes, 60 min): 92.6% | Stability in HLM incubations ([1]; up to 60 min at 2 μM): relatively stable | Stability in major recombinant CYPs (major recombinant CYPs): relatively stable | Loss of Compound A in CYP3A5 (CYP3A5): ≤ 23% | IC50 (OATP1B1): > 3.75 µM | IC50 (OATP1B3): > 3.75 µM
